Here are results for 4 compounds from US20240343692A1 (priority 2021, published 2024).

Test [1] has as its target T1, Sigma-1 (Homo sapiens, UniProt Q99720).
Test [2] deals with T2, Serotonin 5-HT1A (Homo sapiens, UniProt P08908).
T2 sequence (P08908 1-422): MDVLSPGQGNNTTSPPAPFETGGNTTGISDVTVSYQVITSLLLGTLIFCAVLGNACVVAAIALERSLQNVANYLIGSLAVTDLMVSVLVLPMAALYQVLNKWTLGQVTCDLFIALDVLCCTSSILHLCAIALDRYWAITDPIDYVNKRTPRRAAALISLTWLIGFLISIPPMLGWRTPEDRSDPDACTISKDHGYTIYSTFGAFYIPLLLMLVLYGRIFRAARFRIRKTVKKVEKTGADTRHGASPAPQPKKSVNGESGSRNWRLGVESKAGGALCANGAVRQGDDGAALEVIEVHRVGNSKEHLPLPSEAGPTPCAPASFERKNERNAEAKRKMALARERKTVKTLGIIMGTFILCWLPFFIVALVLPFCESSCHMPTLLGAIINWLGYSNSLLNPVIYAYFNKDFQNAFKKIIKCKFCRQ
The settings on record: read-out: inhibition constants Ki, Serotonin 5-HT1A; data from ref. 36; cited from earlier work.

Test [3] deals with T3, Serotonin 5-HT2A (Homo sapiens, UniProt P28223). The note with it: data from ref. 36; read-out: activation potency EC50, Serotonin 5-HT2A; cited from earlier work.
T3 sequence (P28223 whole entry, looked up): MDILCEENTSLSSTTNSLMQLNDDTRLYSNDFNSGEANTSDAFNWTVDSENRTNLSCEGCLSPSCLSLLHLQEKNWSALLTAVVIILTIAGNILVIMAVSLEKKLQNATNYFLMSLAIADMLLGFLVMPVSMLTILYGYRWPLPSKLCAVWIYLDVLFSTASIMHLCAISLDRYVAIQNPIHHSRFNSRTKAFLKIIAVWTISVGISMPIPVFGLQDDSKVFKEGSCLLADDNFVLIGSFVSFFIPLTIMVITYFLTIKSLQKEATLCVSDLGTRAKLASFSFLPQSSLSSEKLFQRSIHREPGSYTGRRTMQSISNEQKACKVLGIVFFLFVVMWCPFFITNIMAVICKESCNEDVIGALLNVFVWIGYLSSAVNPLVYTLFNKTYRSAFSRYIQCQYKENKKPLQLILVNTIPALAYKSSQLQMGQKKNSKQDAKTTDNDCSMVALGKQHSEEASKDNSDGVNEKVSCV
The target of test [4] is T2, Serotonin 5-HT1A. The experiment in a line: Receptor activation potency, Serotonin 5-HT1A. The note with it: 5-point concentration response curves, duplicate. Type of test: biochemical.
Test [5] deals with T1, Sigma-1. The experiment in a line: Inhibition constant, Sigma-1. In kind it is binding. The settings on record: human receptor; 5-point concentration response curves; duplicate; read-out: inhibition constants Ki, Sigma-1.
Test [6] addresses T4, Nicotinic Acetylcholine α4β2 (Homo sapiens, UniProt P17787+P43681). The experiment in a line: CNS receptor radioligand binding, Nicotinic Acetylcholine α4β2. The settings on record: 10 μM.
The target of test [7] is T2, Serotonin 5-HT1A. In words: CNS receptor radioligand binding, Serotonin 5-HT1A.
The target of test [8] is T5, Muscarinic M5 (Homo sapiens, UniProt P08912).
T5 sequence (P08912 1-532): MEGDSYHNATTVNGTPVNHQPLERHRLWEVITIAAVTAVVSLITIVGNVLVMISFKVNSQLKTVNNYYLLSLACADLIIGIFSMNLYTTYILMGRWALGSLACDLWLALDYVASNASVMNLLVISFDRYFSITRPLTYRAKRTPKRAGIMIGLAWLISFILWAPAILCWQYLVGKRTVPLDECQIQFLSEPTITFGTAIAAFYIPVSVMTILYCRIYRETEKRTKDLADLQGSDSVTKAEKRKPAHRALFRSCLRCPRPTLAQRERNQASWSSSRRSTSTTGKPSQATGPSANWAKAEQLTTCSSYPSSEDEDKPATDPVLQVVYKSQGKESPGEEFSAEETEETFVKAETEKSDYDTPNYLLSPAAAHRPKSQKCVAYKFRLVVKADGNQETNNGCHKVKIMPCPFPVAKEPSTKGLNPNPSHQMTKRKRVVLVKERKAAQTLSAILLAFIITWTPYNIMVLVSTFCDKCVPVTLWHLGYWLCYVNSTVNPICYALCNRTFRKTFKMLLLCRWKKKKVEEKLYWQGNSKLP
In words: CNS receptor radioligand binding, Muscarinic M5. The note with it: 10 μM.

Another test deals with Histamine H1 (Homo sapiens, UniProt P35367). In words: CNS receptor radioligand binding, Histamine H1 (human). The note with it: 10 μM.
Histamine H1, sequence (P35367 whole entry): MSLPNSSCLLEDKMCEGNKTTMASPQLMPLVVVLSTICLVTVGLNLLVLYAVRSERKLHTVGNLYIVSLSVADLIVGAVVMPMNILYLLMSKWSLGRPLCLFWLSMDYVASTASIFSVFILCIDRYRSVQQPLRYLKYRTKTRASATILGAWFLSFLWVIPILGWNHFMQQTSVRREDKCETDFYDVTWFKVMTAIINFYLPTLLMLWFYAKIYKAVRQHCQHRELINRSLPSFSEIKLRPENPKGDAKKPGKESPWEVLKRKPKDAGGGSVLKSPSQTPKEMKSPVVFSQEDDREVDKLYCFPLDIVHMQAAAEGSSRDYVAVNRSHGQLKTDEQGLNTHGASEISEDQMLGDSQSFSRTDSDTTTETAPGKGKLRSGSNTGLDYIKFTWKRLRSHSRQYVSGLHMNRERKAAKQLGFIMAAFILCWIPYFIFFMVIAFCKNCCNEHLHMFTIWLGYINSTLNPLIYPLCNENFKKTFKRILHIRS
Test [9] deals with T6, Dopamine D1 (Homo sapiens, UniProt P21728). In words: CNS receptor radioligand binding, Dopamine D1. The note with it: 10 μM.
T6 sequence (P21728 whole entry): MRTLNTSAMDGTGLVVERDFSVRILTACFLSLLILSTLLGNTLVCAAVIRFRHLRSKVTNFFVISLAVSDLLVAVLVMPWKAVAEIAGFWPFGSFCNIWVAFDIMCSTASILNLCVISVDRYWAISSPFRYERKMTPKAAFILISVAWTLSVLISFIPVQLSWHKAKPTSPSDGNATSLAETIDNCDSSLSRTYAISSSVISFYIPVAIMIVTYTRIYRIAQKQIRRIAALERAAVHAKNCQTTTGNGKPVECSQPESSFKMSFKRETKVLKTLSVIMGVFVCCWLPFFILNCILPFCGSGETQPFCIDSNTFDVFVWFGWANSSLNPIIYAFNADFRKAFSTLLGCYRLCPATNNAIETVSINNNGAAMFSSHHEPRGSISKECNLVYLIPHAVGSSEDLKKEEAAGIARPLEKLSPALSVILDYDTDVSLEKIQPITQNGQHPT
Test [10] deals with Adrenergic α1. In words: CNS receptor radioligand binding, Adrenergic α1. The settings on record: 10 μM; rat receptor data.
The subject of test [11] is GABAA. The experiment in a line: CNS receptor radioligand binding, GABAA. The settings on record: 10 μM; rat receptor data.
Test [12] concerns the target T7, Muscarinic M2 (Homo sapiens, UniProt P08172).
T7 sequence (P08172 1-466): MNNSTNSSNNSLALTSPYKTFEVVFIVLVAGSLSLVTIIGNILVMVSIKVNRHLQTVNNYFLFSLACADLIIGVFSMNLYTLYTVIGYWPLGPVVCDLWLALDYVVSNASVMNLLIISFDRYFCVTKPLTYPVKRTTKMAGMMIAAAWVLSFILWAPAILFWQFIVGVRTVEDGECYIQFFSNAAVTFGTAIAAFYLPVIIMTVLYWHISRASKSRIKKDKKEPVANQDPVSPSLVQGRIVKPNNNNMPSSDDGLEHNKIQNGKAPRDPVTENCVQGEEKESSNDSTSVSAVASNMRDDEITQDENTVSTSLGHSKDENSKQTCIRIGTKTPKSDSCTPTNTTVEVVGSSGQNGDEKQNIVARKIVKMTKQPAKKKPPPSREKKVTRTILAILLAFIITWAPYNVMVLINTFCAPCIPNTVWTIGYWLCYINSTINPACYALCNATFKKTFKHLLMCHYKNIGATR
The experiment in a line: CNS receptor radioligand binding, Muscarinic M2. The note with it: 10 μM.

The target in the next test is T8, Serotonin 5-HT2C (Homo sapiens, UniProt P28335).
T8 sequence (P28335 33-458): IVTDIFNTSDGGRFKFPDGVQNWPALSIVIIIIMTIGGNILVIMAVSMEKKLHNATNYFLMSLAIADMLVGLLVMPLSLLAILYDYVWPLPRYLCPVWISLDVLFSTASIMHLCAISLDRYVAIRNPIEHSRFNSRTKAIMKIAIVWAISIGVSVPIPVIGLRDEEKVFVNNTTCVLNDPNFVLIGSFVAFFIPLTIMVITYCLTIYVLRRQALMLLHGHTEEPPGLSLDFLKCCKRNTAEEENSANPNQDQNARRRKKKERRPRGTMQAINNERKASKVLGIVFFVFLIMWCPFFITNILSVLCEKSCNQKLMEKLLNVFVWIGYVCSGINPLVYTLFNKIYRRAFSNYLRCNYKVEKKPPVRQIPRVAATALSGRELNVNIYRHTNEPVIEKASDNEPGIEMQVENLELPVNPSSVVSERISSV
The experiment in a line: Receptor activation potency, Serotonin 5-HT2C. The note with it: 5-point concentration response curves, duplicate. In kind it is biochemical.

In the next test the target is Serotonin 5-HT2B (Homo sapiens, UniProt P41595). The experiment in a line: Receptor activation potency, Serotonin 5-HT2B. The settings on record: 5-point concentration response curves, duplicate. In kind it is biochemical.
Serotonin 5-HT2B, sequence (P41595 whole entry): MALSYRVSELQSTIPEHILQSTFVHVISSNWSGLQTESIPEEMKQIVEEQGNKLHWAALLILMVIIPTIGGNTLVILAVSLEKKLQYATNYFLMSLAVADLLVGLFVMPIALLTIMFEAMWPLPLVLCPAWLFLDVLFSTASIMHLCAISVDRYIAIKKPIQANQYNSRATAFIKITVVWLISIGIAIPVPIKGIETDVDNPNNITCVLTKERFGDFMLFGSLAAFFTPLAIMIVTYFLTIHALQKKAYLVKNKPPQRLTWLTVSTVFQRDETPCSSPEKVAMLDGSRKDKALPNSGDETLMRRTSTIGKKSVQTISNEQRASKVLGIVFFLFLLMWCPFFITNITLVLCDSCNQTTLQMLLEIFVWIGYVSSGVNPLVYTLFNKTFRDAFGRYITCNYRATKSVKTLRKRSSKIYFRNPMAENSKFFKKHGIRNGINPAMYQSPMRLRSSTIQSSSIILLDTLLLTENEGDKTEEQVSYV
In test [13] the target is T9, Dopamine D3 (Homo sapiens, UniProt P35462). The experiment in a line: CNS receptor radioligand binding, Dopamine D3.
T9 sequence (P35462 whole entry): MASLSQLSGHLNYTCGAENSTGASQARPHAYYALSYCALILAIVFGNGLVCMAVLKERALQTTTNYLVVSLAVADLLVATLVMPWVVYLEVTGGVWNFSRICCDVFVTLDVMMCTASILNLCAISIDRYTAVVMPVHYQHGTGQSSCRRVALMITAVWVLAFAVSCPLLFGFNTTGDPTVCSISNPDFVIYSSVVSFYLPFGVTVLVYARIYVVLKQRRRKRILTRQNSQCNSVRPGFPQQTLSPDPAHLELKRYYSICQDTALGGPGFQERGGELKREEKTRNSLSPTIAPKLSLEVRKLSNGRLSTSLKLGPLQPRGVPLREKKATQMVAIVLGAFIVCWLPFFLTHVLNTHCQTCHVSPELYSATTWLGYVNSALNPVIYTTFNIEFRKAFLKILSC
A further test deals with T10, Orexin OX1 (Homo sapiens, UniProt O43613).
T10 sequence (O43613 1-425): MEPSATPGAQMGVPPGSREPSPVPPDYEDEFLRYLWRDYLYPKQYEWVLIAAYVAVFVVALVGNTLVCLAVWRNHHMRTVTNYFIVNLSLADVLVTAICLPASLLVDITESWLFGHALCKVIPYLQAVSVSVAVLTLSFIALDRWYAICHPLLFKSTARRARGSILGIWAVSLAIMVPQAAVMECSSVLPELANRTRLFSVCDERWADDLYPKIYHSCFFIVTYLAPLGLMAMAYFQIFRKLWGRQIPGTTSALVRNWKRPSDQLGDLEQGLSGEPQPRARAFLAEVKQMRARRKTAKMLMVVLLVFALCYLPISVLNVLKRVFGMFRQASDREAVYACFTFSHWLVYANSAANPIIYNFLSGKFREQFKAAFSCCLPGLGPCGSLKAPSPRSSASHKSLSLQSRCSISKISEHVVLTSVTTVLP
In words: CNS receptor radioligand binding, Orexin OX1. The note with it: 10 μM.

In test [14] the target is T3, Serotonin 5-HT2A. In words: Receptor activation potency, Serotonin 5-HT2A. The settings on record: 5-point concentration response curves, duplicate. In kind it is biochemical.
Test [15] concerns the target T3, Serotonin 5-HT2A. In words: CNS receptor radioligand binding, Serotonin 5-HT2A.
In test [16] the target is T11, Dopamine D2L (Homo sapiens, UniProt P14416). The experiment in a line: CNS receptor radioligand binding, Dopamine D2L. The settings on record: 10 μM.
T11 sequence (P14416 whole entry): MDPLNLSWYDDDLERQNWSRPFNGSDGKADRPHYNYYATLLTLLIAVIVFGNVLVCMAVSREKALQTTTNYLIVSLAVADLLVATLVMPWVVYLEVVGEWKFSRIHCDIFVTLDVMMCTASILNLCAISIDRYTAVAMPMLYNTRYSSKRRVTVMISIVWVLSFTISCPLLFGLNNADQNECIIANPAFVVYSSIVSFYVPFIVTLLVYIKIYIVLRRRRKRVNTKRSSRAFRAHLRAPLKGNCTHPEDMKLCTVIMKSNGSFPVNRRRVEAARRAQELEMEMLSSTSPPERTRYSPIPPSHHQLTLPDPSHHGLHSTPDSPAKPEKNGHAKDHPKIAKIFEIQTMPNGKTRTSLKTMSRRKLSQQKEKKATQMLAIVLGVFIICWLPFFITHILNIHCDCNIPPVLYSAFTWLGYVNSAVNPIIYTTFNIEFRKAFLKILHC
In test [17] the target is T12, Opiate κ (Homo sapiens, UniProt P41145). In words: CNS receptor radioligand binding, Opiate κ. The settings on record: 10 μM.
T12 sequence (P41145 whole entry): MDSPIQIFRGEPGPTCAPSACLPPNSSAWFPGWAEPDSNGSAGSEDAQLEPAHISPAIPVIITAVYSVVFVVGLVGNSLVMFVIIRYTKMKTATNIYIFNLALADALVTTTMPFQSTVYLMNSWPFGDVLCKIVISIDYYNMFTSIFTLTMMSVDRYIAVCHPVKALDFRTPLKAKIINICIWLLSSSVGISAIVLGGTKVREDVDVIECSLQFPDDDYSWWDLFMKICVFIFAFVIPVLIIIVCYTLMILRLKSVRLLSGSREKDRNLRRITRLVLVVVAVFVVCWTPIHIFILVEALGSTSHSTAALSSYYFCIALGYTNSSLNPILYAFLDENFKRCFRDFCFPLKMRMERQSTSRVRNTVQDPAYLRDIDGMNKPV
Test [18] concerns the target T5, Muscarinic M5. The note with it: 10 μM; data from ref. 34; cited from earlier work.
The target in test [19] is T3, Serotonin 5-HT2A. The note with it: 10 μM; data from ref. 34; cited from earlier work.
For test [20], the target named is T6, Dopamine D1. The note with it: 10 μM; data from ref. 34; cited from earlier work.
In test [21] the test system is Adrenergic α1. The note with it: 10 μM; rat receptor data; data from ref. 35; cited from earlier work.
Test [22] has as its target T12, Opiate κ. The note with it: 10 μM; data from ref. 34; cited from earlier work.
In test [23] the target is T4, Nicotinic Acetylcholine α4β2. The settings on record: 10 μM; data from ref. 34; cited from earlier work.
Test [24] deals with T7, Muscarinic M2. The note with it: 10 μM; data from ref. 34; cited from earlier work.
Test [25] has as its target T11, Dopamine D2L. The settings on record: 10 μM; data from ref. 34; cited from earlier work.
Test [26] concerns GABAA. The settings on record: 10 μM; rat receptor data; data from ref. 34; cited from earlier work.
Test [27] addresses T9, Dopamine D3. The note with it: 10 μM; data from ref. 34; cited from earlier work.

Where two headings read alike, the source gives them in different places. Marks after values point to notes of the source that are not given here.

T1 sequence (Q99720 whole entry): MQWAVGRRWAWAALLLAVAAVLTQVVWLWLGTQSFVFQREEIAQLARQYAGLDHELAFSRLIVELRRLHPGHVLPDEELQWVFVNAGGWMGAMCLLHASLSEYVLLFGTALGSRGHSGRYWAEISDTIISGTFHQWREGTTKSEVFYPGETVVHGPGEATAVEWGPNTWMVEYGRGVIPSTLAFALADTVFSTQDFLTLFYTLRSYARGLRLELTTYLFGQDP
T4 sequence (P43681 29-627 limits assumed): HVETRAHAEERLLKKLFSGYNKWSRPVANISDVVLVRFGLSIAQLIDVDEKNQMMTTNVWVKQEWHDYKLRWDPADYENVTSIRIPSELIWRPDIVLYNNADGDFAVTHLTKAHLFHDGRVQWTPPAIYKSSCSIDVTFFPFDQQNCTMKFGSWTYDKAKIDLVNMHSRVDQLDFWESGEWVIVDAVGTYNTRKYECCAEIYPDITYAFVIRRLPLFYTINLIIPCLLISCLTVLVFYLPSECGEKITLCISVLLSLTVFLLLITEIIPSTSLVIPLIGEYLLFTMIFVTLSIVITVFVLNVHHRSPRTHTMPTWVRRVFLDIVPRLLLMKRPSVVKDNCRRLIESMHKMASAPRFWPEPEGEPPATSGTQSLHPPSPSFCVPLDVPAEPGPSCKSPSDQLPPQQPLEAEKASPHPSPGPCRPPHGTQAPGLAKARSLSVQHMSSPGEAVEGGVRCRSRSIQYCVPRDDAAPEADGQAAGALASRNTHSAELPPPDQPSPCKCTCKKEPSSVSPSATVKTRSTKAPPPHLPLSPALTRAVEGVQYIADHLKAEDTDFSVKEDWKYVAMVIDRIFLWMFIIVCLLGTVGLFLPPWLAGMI
T4 sequence (P17787 26-502): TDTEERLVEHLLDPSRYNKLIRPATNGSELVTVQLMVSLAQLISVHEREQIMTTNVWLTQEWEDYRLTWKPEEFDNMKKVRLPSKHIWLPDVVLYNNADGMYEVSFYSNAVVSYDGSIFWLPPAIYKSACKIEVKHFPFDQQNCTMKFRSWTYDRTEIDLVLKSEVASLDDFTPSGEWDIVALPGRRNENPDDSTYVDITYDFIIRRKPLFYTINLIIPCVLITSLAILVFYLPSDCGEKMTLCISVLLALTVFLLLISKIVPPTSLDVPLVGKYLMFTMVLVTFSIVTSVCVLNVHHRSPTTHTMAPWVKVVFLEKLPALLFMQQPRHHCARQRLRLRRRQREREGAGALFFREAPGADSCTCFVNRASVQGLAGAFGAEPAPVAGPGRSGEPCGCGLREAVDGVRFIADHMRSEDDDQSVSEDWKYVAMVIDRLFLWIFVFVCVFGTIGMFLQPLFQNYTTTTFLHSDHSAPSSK

With `CN(C)CCc1c[nH]c2cccc(O)c12` [Psilocin], the Ki at Sigma-1 [1] (read-out: inhibition constants Ki, Sigma-1; data from ref. 37; cited from earlier work) is greater than 10000 nM; at Serotonin 5-HT1A [2], 123 nM.
As for `CN(C)CCc1c[nH]c2ccccc12` [DMT], at Sigma-1 [1] (data from ref. 37; read-out: inhibition constants Ki, Sigma-1; cited from earlier work), the Ki is 5200 nM. Besides, the EC50 on Serotonin 5-HT2A [3] is 76 nM.
Regarding (+)-Cycloclavine, the EC50 on Serotonin 5-HT1A [4] is 140 nM; at Serotonin 5-HT2C it was 16 nM; on Serotonin 5-HT2B, greater than 20000 nM; at Serotonin 5-HT2A [14], roughly 10000 nM. Also, the Ki on Sigma-1 [5] is roughly 50000 nM. Moreover, the “Percent Inhibition of Specific Binding of a Radioligand Standard, Nicotinic Acetylcholine α4β2” value in test [6] stood at 9 % inh. Further, the “Percent Inhibition of Specific Binding of a Radioligand Standard, Serotonin 5-HT1A” value on Serotonin 5-HT1A [7] (1 μM) and on Serotonin 5-HT1A [7] (10 μM) was 97 % inh in each case. Moreover, on Muscarinic M5 [8], the “Percent Inhibition of Specific Binding of a Radioligand Standard, Muscarinic M5” value is reported as 11 % inh. Besides, the “Percent Inhibition of Specific Binding of a Radioligand Standard, Histamine H1” value at Histamine H1 is reported as 17 % inh. Moreover, the “Percent Inhibition of Specific Binding of a Radioligand Standard, Dopamine D1” value on Dopamine D1 [9] is on record as 91 % inh. Further, the “Percent Inhibition of Specific Binding of a Radioligand Standard, Adrenergic α1” value in the test with Adrenergic α1 [10] came out at 57 % inh. The “Percent Inhibition of Specific Binding of a Radioligand Standard, GABAA” value with GABAA [11] worked out at 9 % inh. In addition, on Muscarinic M2 [12], the “Percent Inhibition of Specific Binding of a Radioligand Standard, Muscarinic M2” value was 0 % inh. For the same compound, the entries for the “Percent Inhibition of Specific Binding of a Radioligand Standard, Dopamine D3” value on Dopamine D3 [13] (1 μM) and on Dopamine D3 [13] (10 μM) were 75 % inh and 93 % inh, respectively. On Orexin OX1, the “Percent Inhibition of Specific Binding of a Radioligand Standard, Orexin OX1” value is on record as 23 % inh. Also, the “Percent Inhibition of Specific Binding of a Radioligand Standard, Serotonin 5-HT2A” value on Serotonin 5-HT2A [15] (1 μM) and on Serotonin 5-HT2A [15] (10 μM) was 100 % inh in each case. In addition, at Dopamine D2L [16], the “Percent Inhibition of Specific Binding of a Radioligand Standard, Dopamine D2L” value came out at 81 % inh. For the same compound, on Opiate κ [17], the “Percent Inhibition of Specific Binding of a Radioligand Standard, Opiate κ” value worked out at 73 % inh.
Turning to `CCN(CC)C(=O)[C@@H]1C=C2c3cccc4[nH]cc(c34)C[C@H]2N(C)C1` [D-LSD, D-lysergic acid diethylamide], on Muscarinic M5 [18], the “Percent Inhibition of Specific Binding of a Radioligand Standard, Muscarinic M5” value is 15 % inh. The “Percent Inhibition of Specific Binding of a Radioligand Standard, Serotonin 5-HT2A” value at Serotonin 5-HT2A [19] was 93 % inh. Further, the “Percent Inhibition of Specific Binding of a Radioligand Standard, Dopamine D1” value at Dopamine D1 [20] is reported as 93 % inh. The “Percent Inhibition of Specific Binding of a Radioligand Standard, Adrenergic α1” value with Adrenergic α1 [21] was 100^d % inh. Also, the “Percent Inhibition of Specific Binding of a Radioligand Standard, Opiate κ” value on Opiate κ [22] is recorded as 29 % inh. For the same compound, the “Percent Inhibition of Specific Binding of a Radioligand Standard, Nicotinic Acetylcholine α4β2” value in test [23] is 0 % inh. The “Percent Inhibition of Specific Binding of a Radioligand Standard, Muscarinic M2” value on Muscarinic M2 [24] is on record as 2 % inh. Also, on Dopamine D2L [25], the “Percent Inhibition of Specific Binding of a Radioligand Standard, Dopamine D2L” value is 85 % inh. Further, the “Percent Inhibition of Specific Binding of a Radioligand Standard, GABAA” value in the test with GABAA [26] is listed as 0 % inh. Moreover, the “Percent Inhibition of Specific Binding of a Radioligand Standard, Dopamine D3” value at Dopamine D3 [27] is on record as 78 % inh.
